These are literature values, as cited in patent US10487314B2, “Inhibition of serotonin expression in gut enteroendocrine cells results in conversion to insulin-positive cells” (priority 2014, dated 2019).

SMILES strings stand for the structures.

The target in series [1] is 5-HT2B (Homo sapiens, UniProt P41595).
The test system of series [2] is ALDH1A3 mRNA. The note with it: human prostate.

5-HT2B, sequence (P41595 whole entry, species assumed): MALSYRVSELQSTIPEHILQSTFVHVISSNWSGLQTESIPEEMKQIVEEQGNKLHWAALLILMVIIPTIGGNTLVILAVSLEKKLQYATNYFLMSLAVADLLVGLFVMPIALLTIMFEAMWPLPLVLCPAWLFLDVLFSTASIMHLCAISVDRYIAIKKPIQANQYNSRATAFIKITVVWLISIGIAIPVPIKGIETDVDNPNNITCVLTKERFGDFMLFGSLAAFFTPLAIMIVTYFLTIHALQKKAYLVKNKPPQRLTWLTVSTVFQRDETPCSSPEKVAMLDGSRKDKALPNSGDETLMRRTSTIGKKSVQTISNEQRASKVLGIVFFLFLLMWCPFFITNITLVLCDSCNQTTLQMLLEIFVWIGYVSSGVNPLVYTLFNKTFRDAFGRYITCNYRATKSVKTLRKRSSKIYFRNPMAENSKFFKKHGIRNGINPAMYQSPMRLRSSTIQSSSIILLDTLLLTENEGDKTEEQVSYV

Take `Cc1cc([N+](=O)[O-])c(N2CCN(Cc3ccccc3)CC2)cc1N` [EGIS-7625]: the “selectivity over 5-HT2A” value in series [1] is on record as “high selectivity”. For the compound `C[C@]12CCC(=O)C[C@@H]1CC[C@@H]1[C@@H]2CC[C@]2(C)[C@@H](O)CC[C@@H]12` [Androgen dihydrotestosterone (DHT), dihydrotestosterone], in series [2], the “increase in ALDH1A3 mRNA levels” value is 4 fold. In the case of `CC(C)c1cc(-c2ccc(F)c3ccccc23)nc(N)n1` [RS-127,445], the oral bioavailability entry was “orally bioavailable”. Also, the “affinity for 5-HT2B” value in series [1] is “high affinity”. Also, the subtype selectivity in series [1] (5-HT2B versus other subtypes) is reported as 1000 ×.
